Assay results taken from ChEMBL document CHEMBL1772989, “Non-peptide metabolites from the genus Bacillus” (J Nat Prod, 2011).

Tests used:
Staphylococcus aureus = experiment: Antibacterial activity against Staphylococcus aureus ATCC 10832; type: functional
Pseudomonas aeruginosa = experiment: Antibacterial activity against Pseudomonas aeruginosa ATCC 14210; type: functional

## CC(C)CCCCCCCC(=O)N[C@@H](CC(N)=O)C(=O)O [LIPOAMIDE A]
Staphylococcus aureus
  MIC: > 100 µg/mL
Pseudomonas aeruginosa
  MIC: > 100 µg/mL

## CC(C)CCCCCCCCCC(=O)N[C@@H](CC(N)=O)C(=O)O [LIPOAMIDE C]
Staphylococcus aureus
  MIC: > 100 µg/mL
Pseudomonas aeruginosa
  MIC: > 100 µg/mL

## CC(C)CCCCCCCCC(=O)N[C@@H](CC(N)=O)C(=O)O [LIPOAMIDE B]
Staphylococcus aureus
  MIC: > 100 µg/mL
Pseudomonas aeruginosa
  MIC: > 100 µg/mL
